Test results published in patent US20230265151A1, “GIP/GLP1 CO-AGONIST COMPOUNDS” (priority 2020, published 2023).
Like-named read-outs stand apart in the source and are kept apart here. Where a SMILES comes first, the peptide text is derived from it. Side-chain parts run from the residue outwards. [ ]: non-standard residue; d: D form. The star is where a group is joined. αMePhe(2-F) = C[C@](N)(Cc1ccccc1F)C(=O)O; C14 diacid = O=C(O)CCCCCCCCCCCCC(=O)*; αMeY = C[C@](N)(Cc1ccc(O)cc1)C(=O)O; 4Pal = N[C@@H](Cc1ccncc1)C(=O)O; αMeL = CC(C)C[C@](C)(N)C(=O)O; Orn = NCCC[C@H](N)C(=O)O; AEEA = NCCOCCOCC(=O)O; Aib = CC(C)(N)C(=O)O

Assays:
Type in all cases: cell-based
hGCGR = target: T1, hGCGR (Homo sapiens, UniProt P47871); assay: Functional cAMP formation (HTRF) in HEK-293 clonal cells expressing hGCGR, 0.1% bovine casein, without or with 1.0% human serum albumin; details: read-out: hGCGR EC50, nM (SEM, n)
T1 construct: expressed in transfected cells
T1 sequence (P47871 26-477): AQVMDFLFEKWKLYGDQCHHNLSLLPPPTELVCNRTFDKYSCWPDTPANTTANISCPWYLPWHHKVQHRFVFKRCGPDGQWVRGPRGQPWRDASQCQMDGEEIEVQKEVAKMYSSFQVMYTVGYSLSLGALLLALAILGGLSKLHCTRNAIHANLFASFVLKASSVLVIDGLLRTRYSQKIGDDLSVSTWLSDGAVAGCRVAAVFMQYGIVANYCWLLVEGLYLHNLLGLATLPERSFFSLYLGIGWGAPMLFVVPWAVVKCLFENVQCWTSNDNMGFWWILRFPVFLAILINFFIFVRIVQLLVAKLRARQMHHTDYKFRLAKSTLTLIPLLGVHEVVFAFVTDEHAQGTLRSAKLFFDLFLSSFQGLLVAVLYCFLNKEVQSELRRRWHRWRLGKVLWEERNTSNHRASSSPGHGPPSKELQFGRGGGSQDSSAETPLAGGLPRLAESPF
Procedure, shortened: (§1)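 Cells were stimulated with peptide for 30 min at 37° C, then intracellular cAMP was measured by competitive HTRF (665/620 nm ratio) and converted to nM using a cAMP standard curve. Relative EC50 and Emax came from four-parameter logistic fits of percent maximal response against peptide concentration.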

hGLP-1R = hGLP-1R (Homo sapiens, UniProt P43220); assay: Functional cAMP formation (HTRF) in HEK-293 clonal cells expressing hGLP-1R, 0.1% bovine casein, without or with 1.0% human serum albumin; set-up: expressed in transfected cells; details: for Emax: read-out: hGLP-1R Emax, % ± SEM; for EC50: cAMP, 0.1% bovine casein (no human serum albumin), geometric mean, read-out: hGLP-1R EC50, nM (SEM, n)
hGLP-1R, sequence (P43220 24-463): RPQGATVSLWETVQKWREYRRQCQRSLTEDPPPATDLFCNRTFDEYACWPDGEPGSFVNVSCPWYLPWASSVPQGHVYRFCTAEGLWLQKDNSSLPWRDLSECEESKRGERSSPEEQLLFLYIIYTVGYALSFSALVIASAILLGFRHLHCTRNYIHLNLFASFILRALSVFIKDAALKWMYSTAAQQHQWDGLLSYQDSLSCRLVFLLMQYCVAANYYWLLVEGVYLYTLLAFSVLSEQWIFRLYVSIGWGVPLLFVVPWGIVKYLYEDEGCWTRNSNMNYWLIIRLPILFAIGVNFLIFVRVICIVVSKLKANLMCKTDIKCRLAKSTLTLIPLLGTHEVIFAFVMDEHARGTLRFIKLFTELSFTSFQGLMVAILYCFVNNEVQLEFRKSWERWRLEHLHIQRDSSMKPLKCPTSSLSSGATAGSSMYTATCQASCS
Procedure, shortened: as §1

hGIPR = target: T2, hGIPR (Homo sapiens, UniProt P48546); assay: Functional cAMP formation (HTRF) in HEK-293 clonal cells expressing hGIPR, 0.1% bovine casein, without or with 1.0% human serum albumin; details: for Emax: percent of maximal response to GIP(1-42)NH2, read-out: hGIPR Emax, % ± SEM; for EC50: geometric mean, read-out: hGIPR EC50, nM (SEM, n)
T2 construct: expressed in transfected cells
T2 sequence (P48546 22-466): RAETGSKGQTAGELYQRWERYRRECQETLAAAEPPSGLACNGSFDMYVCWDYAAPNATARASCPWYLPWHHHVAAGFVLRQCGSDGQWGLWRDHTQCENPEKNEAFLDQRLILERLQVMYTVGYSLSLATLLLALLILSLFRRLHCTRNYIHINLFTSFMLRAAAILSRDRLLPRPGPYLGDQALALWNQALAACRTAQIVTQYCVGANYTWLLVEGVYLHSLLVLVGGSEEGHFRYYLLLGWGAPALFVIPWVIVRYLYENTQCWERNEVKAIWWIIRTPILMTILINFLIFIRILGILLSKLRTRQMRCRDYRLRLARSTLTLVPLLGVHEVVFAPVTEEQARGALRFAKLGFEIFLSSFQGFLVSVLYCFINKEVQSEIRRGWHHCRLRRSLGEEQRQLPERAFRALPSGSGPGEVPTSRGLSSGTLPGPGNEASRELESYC
Procedure, shortened: as §1

SMILES	EC50 (hGCGR; cAMP, 37° C., 0.1% bovine casein (no human serum albumin), geometric mean) [nM]	EC50 (hGCGR; cAMP, 37° C., 0.1% bovine casein and 1.0% human serum albumin, geometric mean (SEM, n)) [nM]	Emax (hGLP-1R; HEK293, cAMP, 37° C., 0.1% bovine casein and 1.0% human serum albumin, percent of maximal response to GLP-1(7-36)NH2) [%]	Emax (hGLP-1R; HEK293, cAMP, 37° C., 0.1% bovine casein, percent of maximal response to GLP-1(7-36)NH2, arithmetic mean) [%]	EC50 (hGLP-1R; 37° C.) [nM]	Emax (hGIPR; HEK293, cAMP, 37° C., 0.1% bovine casein and 1.0% human serum albumin) [%]	Emax (hGIPR; HEK293, cAMP, 37° C., 0.1% bovine casein, arithmetic mean) [%]	EC50 (hGIPR; cAMP, 37° C., 0.1% bovine casein (no human serum albumin)) [nM]	EC50 (hGCGR; 0.1% bovine casein and 1.0% human serum albumin, 37° C., geometric mean) [nM]	EC50 (hGCGR; cAMP, incubated at 37° C., 0.1% bovine casein (no human serum albumin), geometric mean) [nM]	Emax (hGLP-1R; HEK293, 0.1% bovine casein and 1.0% human serum albumin, 37° C., percent of maximal response to GLP-1(7-36)NH2) [%]	Emax (hGLP-1R; HEK293, percent of maximal response to GLP-1(7-36)NH2, 37° C., 0.1% bovine casein, arithmetic mean) [%]	EC50 (hGLP-1R; incubated at 37° C.) [nM]	EC50 (hGIPR; 0.1% bovine casein and 1.0% human serum albumin, 37° C.) [nM]	Emax (hGIPR; HEK293, 0.1% bovine casein and 1.0% human serum albumin, 37° C.) [%]	EC50 (hGIPR; cAMP, incubated at 37° C., 0.1% bovine casein (no human serum albumin)) [nM]
CC[C@H](C)[C@H](NC(=O)[C@H](CCCN)NC(=O)[C@H](CC(=O)O)NC(=O)[C@H](CC(C)C)NC(=O)[C@](C)(CC(C)C)NC(=O)[C@@H](NC(=O)C(C)(C)NC(=O)[C@H](Cc1ccncc1)NC(=O)[C@H](CC(=O)O)NC(=O)[C@H](CO)NC(=O)[C@@H](NC(=O)[C@](C)(Cc1ccccc1F)NC(=O)[C@@H](NC(=O)CNC(=O)[C@H](CCC(=O)O)NC(=O)C(C)(C)NC(=O)[C@@H](N)Cc1ccc(O)cc1)[C@@H](C)O)[C@@H](C)O)[C@@H](C)CC)C(=O)N[C@@H](C)C(=O)N[C@@H](CCC(N)=O)C(=O)NC(C)(C)C(=O)N[C@@H](CCCCNC(=O)COCCOCCNC(=O)CC[C@H](NC(=O)CCCCCCCCCCCCC(=O)O)C(=O)O)C(=O)N[C@@H](Cc1ccccc1)C(=O)N[C@H](C(=O)N[C@H](CCC(=O)O)C(=O)N[C@@](C)(Cc1ccc(O)cc1)C(=O)N[C@@H](CC(C)C)C(=O)N[C@H](C(=O)N[C@@H](CCCCNC(=O)COCCOCCNC(=O)CC[C@H](NC(=O)CCCCCCCCCCCCC(=O)O)C(=O)O)C(=O)NCC(=O)NCC(=O)N1CCC[C@H]1C(=O)N[C@@H](CO)C(=O)N[C@@H](CO)C(=O)NCC(=O)N[C@@H](C)C(=O)N1CCC[C@H]1C(=O)N1CCC[C@H]1C(=O)N1CCC[C@H]1C(=O)N[C@@H](CO)C(N)=O)[C@@H](C)CC)[C@@H](C)CC [Example 340]	> 9950	> 9950	112	105	0.409	87.9	95.2	0.0206								
CC[C@H](C)[C@H](NC(=O)[C@H](CCCN)NC(=O)[C@H](CC(=O)O)NC(=O)[C@H](CC(C)C)NC(=O)[C@](C)(CC(C)C)NC(=O)[C@@H](NC(=O)[C@H](CO)NC(=O)[C@H](Cc1ccncc1)NC(=O)[C@H](CC(=O)O)NC(=O)[C@H](CO)NC(=O)[C@@H](NC(=O)[C@](C)(Cc1ccccc1F)NC(=O)[C@@H](NC(=O)CNC(=O)[C@H](CCC(=O)O)NC(=O)C(C)(C)NC(=O)[C@@H](N)Cc1ccc(O)cc1)[C@@H](C)O)[C@@H](C)O)[C@@H](C)CC)C(=O)N[C@@H](C)C(=O)N[C@@H](CCC(N)=O)C(=O)NC(C)(C)C(=O)N[C@@H](CCC(=O)O)C(=O)N[C@@H](Cc1ccccc1)C(=O)N[C@H](C(=O)N[C@H](CCC(=O)O)C(=O)N[C@@](C)(Cc1ccc(O)cc1)C(=O)N[C@@H](CC(C)C)C(=O)N[C@H](C(=O)N[C@@H](CCCCNC(=O)COCCOCCNC(=O)COCCOCCNC(=O)CCCCCCCCCCCCC(=O)O)C(=O)NCC(=O)NCC(=O)N1CCC[C@H]1C(=O)N[C@@H](CO)C(=O)N[C@@H](CO)C(=O)NCC(=O)N[C@@H](C)C(=O)N1CCC[C@H]1C(=O)N1CCC[C@H]1C(=O)N1CCC[C@H]1C(=O)N[C@@H](CO)C(=O)N[C@@H](CCCCNC(=O)COCCOCCNC(=O)COCCOCCNC(=O)CCCCCCCCCCCCC(=O)O)C(N)=O)[C@@H](C)CC)[C@@H](C)CC [Example 223] (H-Y[Aib]EGT[αMePhe(2-F)]TSD[4Pal]SI[αMeL]LD[Orn]IAQ[Aib]EFI[dE][αMeY]LIK([AEEA-AEEA-C14 diacid])GGPSSGAPPPSK([AEEA-AEEA-C14 diacid])-NH2)									> 9950	> 9950	115	94	1.43	7.84	79.2	0.0252
